From the supplement of paper PMC10307832

Compound: Cn1cnc2c(F)c(Nc3ccc(Br)cc3Cl)c(C(=O)NOCCO)cc21 [Selumetinib] + Cc1nc(NC(=O)N2CCC[C@H]2C(N)=O)sc1-c1ccnc(C(C)(C)C(F)(F)F)c1 [Alpelisib] (partner 2 µM)
Assay: relative viability (nuclei count vs DMSO), 5 days (fraction); higher = more cells survive
Conditions: first compound 0.02 µM
In short: (§1)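 Relative viability is defined as nuclei in treated wells over nuclei in vehicle wells. Duplicate plates were run and medians reported. Lung cancer cell lines in 1536-well plates were dosed by pin tool one day after seeding, with one drug or with a fixed anchor-drug dose plus five library-drug doses (not always all listed) in √10 steps, and nuclei were counted after 5 days.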

Cell Line	relative viability
LC-2-ad	0.862
LXF-289	0.928
NCI-H2170	0.763
NCI-H322M	0.643
HCC-78	0.286
BEN	1.02
HCC-15	0.683
HCC-827	0.961
NCI-H460	0.464
LU99A	0.551
NCI-H2085	0.884
A-427	1.06
NCI-H838	0.847
NCI-H596	0.548
NCI-H3122	0.551
NCI-H1395	0.981

Cell Line	relative viability
201T	0.95
NCI-H1993	0.681
HOP-62	0.86
NCI-H1355	0.77
NCI-H2405	0.737
NCI-H1437	0.914
CAL-12T	1.22
H3255	0.596
NCI-H2347	0.832
NCI-H1975	0.643
NCI-H441	0.775
NCI-H1915	1.02
NCI-H2087	0.777
HCC-366	0.361
NCI-H1793	0.786
RERF-LC-KJ	0.858

Same assay, conditions: first compound 0.06325 µM

Cell Line	relative viability
LC-2-ad	0.82
LXF-289	0.854
NCI-H2170	0.828
NCI-H322M	0.549
HCC-78	0.321
BEN	0.932
HCC-15	0.405
HCC-827	0.786
NCI-H460	0.21
LU99A	0.501
NCI-H2085	0.742
A-427	1.05
NCI-H838	0.81
NCI-H596	0.43
NCI-H3122	0.492
NCI-H1395	1.05

Cell Line	relative viability
201T	0.954
NCI-H1993	0.584
HOP-62	0.962
NCI-H1355	0.791
NCI-H2405	0.472
NCI-H1437	0.855
CAL-12T	0.823
H3255	0.678
NCI-H2347	0.613
NCI-H1975	0.511
NCI-H441	0.754
NCI-H1915	0.936
NCI-H2087	0.65
HCC-366	0.273
NCI-H1793	0.646
RERF-LC-KJ	0.772

Same assay, conditions: first compound 0.2 µM

Cell Line	relative viability
LC-2-ad	0.66
LXF-289	0.841
NCI-H2170	0.736
NCI-H322M	0.563
HCC-78	0.219
BEN	0.861
HCC-15	0.347
HCC-827	0.863
NCI-H460	0.172
LU99A	0.489
NCI-H2085	0.796
A-427	0.936
NCI-H838	0.807
NCI-H596	0.353
NCI-H3122	0.353
NCI-H1395	0.953

Cell Line	relative viability
201T	0.906
NCI-H1993	0.769
HOP-62	0.965
NCI-H1355	0.591
NCI-H2405	0.427
NCI-H1437	0.292
CAL-12T	0.895
H3255	0.573
NCI-H2347	0.445
NCI-H1975	0.413
NCI-H441	0.656
NCI-H1915	0.692
NCI-H2087	0.515
HCC-366	0.196
NCI-H1793	0.41
RERF-LC-KJ	0.693

Same assay, conditions: first compound 0.6325 µM

Cell Line	relative viability
LC-2-ad	0.848
LXF-289	0.762
NCI-H2170	0.658
NCI-H322M	0.532
HCC-78	0.298
BEN	0.886
HCC-15	0.19
HCC-827	0.791
NCI-H460	0.137
LU99A	0.573
NCI-H2085	0.873
A-427	0.817
NCI-H838	0.704
NCI-H596	0.162
NCI-H3122	0.366
NCI-H1395	1.02

Cell Line	relative viability
201T	0.824
NCI-H1993	0.702
HOP-62	0.465
NCI-H1355	0.444
NCI-H2405	0.277
NCI-H1437	0.206
CAL-12T	0.817
H3255	0.556
NCI-H2347	0.387
NCI-H1975	0.37
NCI-H441	0.647
NCI-H1915	0.49
NCI-H2087	0.306
HCC-366	0.158
NCI-H1793	0.452
RERF-LC-KJ	0.636

Compound: CC1(C)CCC(CN2CCN(c3ccc(C(=O)NS(=O)(=O)c4ccc(NCC5CCOCC5)c([N+](=O)[O-])c4)c(Oc4cnc5[nH]ccc5c4)c3)CC2)=C(c2ccc(Cl)cc2)C1 [Venetoclax] + NC(=O)Nc1cc(-c2cccc(F)c2)sc1C(=O)N[C@H]1CCCNC1 [AZD7762] (partner 0.2 µM)
Assay: as above
Conditions: first compound 0.01 µM
In short: as §1

Cell Line	relative viability
LC-2-ad	0.992
LXF-289	1.19
NCI-H2170	0.735
NCI-H322M	0.606
HCC-78	0.667
BEN	0.771
HCC-15	1.29
HCC-827	0.27
NCI-H460	0.754
LU99A	0.343
NCI-H2085	0.802
A-427	0.752
NCI-H838	0.93
NCI-H596	1.12
NCI-H3122	1.07
NCI-H1395	0.402

Cell Line	relative viability
201T	0.572
NCI-H1993	0.635
HOP-62	0.486
NCI-H1355	0.723
NCI-H2405	0.628
NCI-H1437	1.14
CAL-12T	0.584
H3255	0.875
NCI-H2347	0.729
NCI-H1975	0.737
NCI-H441	1.14
NCI-H1915	0.657
NCI-H2087	1.26
HCC-366	0.332
NCI-H1793	0.638
RERF-LC-KJ	0.801

Same assay, conditions: first compound 0.03162 µM

Cell Line	relative viability
LC-2-ad	0.856
LXF-289	1.06
NCI-H2170	0.805
NCI-H322M	0.608
HCC-78	0.818
BEN	0.746
HCC-15	1.28
HCC-827	0.258
NCI-H460	0.653
LU99A	0.391
NCI-H2085	1.02
A-427	0.762
NCI-H838	0.999
NCI-H596	0.975
NCI-H3122	0.997
NCI-H1395	0.442

Cell Line	relative viability
201T	0.634
NCI-H1993	0.787
HOP-62	0.841
NCI-H1355	0.733
NCI-H2405	0.722
NCI-H1437	1.14
CAL-12T	0.644
H3255	0.999
NCI-H2347	0.894
NCI-H1975	0.709
NCI-H441	1.27
NCI-H1915	0.658
NCI-H2087	1.32
HCC-366	0.202
NCI-H1793	0.441
RERF-LC-KJ	1.09

Same assay, conditions: first compound 0.1 µM

Cell Line	relative viability
LC-2-ad	0.809
LXF-289	1.02
NCI-H2170	0.692
NCI-H322M	0.424
HCC-78	0.738
BEN	0.611
HCC-15	1.15
HCC-827	0.302
NCI-H460	0.619
LU99A	0.251
NCI-H2085	0.924
A-427	0.674
NCI-H838	0.877
NCI-H596	1.27
NCI-H3122	0.909
NCI-H1395	0.392

Cell Line	relative viability
201T	0.612
NCI-H1993	0.651
HOP-62	0.522
NCI-H1355	0.705
NCI-H2405	0.744
NCI-H1437	1.11
CAL-12T	0.638
H3255	0.944
NCI-H2347	0.663
NCI-H1975	0.672
NCI-H441	1.05
NCI-H1915	0.655
NCI-H2087	1.17
HCC-366	0.214
NCI-H1793	0.346
RERF-LC-KJ	1.07

Same assay, conditions: first compound 0.3162 µM

Cell Line	relative viability
LC-2-ad	0.845
LXF-289	1.06
NCI-H2170	0.806
NCI-H322M	0.591
HCC-78	0.577
BEN	0.836
HCC-15	1.16
HCC-827	0.224
NCI-H460	0.669
LU99A	0.367
NCI-H2085	0.962
A-427	0.784
NCI-H838	0.923
NCI-H596	1.12
NCI-H3122	0.954
NCI-H1395	0.434

Cell Line	relative viability
201T	0.644
NCI-H1993	0.816
HOP-62	0.726
NCI-H1355	0.716
NCI-H2405	0.748
NCI-H1437	1.08
CAL-12T	0.636
H3255	0.901
NCI-H2347	0.723
NCI-H1975	0.822
NCI-H441	1.4
NCI-H1915	0.695
NCI-H2087	1.46
HCC-366	0.25
NCI-H1793	0.299
RERF-LC-KJ	1.03

Same assay, conditions: first compound 1 µM

Cell Line	relative viability
LC-2-ad	0.802
LXF-289	1.01
NCI-H2170	0.763
NCI-H322M	0.649
HCC-78	0.539
BEN	0.637
HCC-15	1.36
HCC-827	0.183
NCI-H460	0.566
LU99A	0.307
NCI-H2085	0.916
A-427	0.709
NCI-H838	0.837
NCI-H596	1.2
NCI-H3122	1.03
NCI-H1395	0.405

Cell Line	relative viability
201T	0.639
NCI-H1993	0.763
HOP-62	0.494
NCI-H1355	0.652
NCI-H2405	0.657
NCI-H1437	1.07
CAL-12T	0.435
H3255	0.782
NCI-H2347	0.76
NCI-H1975	0.67
NCI-H441	1.09
NCI-H1915	0.611
NCI-H2087	1.56
HCC-366	0.141
NCI-H1793	0.259
RERF-LC-KJ	0.945

Compound: CC1(C)CCC(CN2CCN(c3ccc(C(=O)NS(=O)(=O)c4ccc(NCC5CCOCC5)c([N+](=O)[O-])c4)c(Oc4cnc5[nH]ccc5c4)c3)CC2)=C(c2ccc(Cl)cc2)C1 [Venetoclax] + Cc1cc(Nc2cc(N3CCN(C)CC3)nc(Sc3ccc(NC(=O)C4CC4)cc3)n2)n[nH]1 [Tozasertib] (partner 0.1 µM)
Assay: as above
Conditions: first compound 0.01 µM
In short: as §1

Cell Line	relative viability
LC-2-ad	0.418
LXF-289	0.217
NCI-H2170	0.723
NCI-H322M	0.495
HCC-78	0.349
BEN	0.426
HCC-15	0.45
HCC-827	0.417
NCI-H460	0.473
LU99A	0.28
NCI-H2085	0.833
A-427	0.203
NCI-H838	0.254
NCI-H596	1.05
NCI-H3122	0.422
NCI-H1395	0.851
